Laboratory results reported in PubChem BioAssay (NCI).
“And” between values parts separate entries of the source, which are not always exact repeats. Equal values may be shown once.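 Dose response: 5 concentrations. Exposure: 48 h. Format: 96-well plates. Endpoint: linear interpolation; highest concentration if not reached. Abbreviation: GI50, concentration required for 50% inhibition of growth. TGI marks complete inhibition of growth.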

Assays:
Assay in all cases: DTP human tumour cell line panel, 48 h
A549 NSCLC = test system: A549 NSCLC
HCT-116 colon = test system: HCT-116 colon
HCT-15 colon = test system: HCT-15 colon
HL-60(TB) leukemia = test system: HL-60(TB) leukemia
M14 melanoma = test system: M14 melanoma
SK-MEL-2 melanoma = test system: SK-MEL-2 melanoma
SK-MEL-28 melanoma = test system: SK-MEL-28 melanoma
HOP-62 NSCLC = test system: HOP-62 NSCLC
MCF7 breast = test system: MCF7 breast
NCI/ADR-RES ovarian = test system: NCI/ADR-RES ovarian

Structure (SMILES)	GI50 (A549 NSCLC) [µM]	TGI (A549 NSCLC) [µM]	GI50 (HCT-116 colon) [µM]	TGI (HCT-116 colon) [µM]	GI50 (HCT-15 colon) [µM]	TGI (HCT-15 colon) [µM]	GI50 (HL-60(TB) leukemia) [µM]	TGI (HL-60(TB) leukemia) [µM]	GI50 (M14 melanoma) [µM]	TGI (M14 melanoma)	GI50 (SK-MEL-2 melanoma) [µM]	TGI (SK-MEL-2 melanoma) [µM]	GI50 (SK-MEL-28 melanoma) [µM]	TGI (SK-MEL-28 melanoma) [µM]	TGI (HOP-62 NSCLC) [µM]	TGI (MCF7 breast) [µM]	TGI (NCI/ADR-RES ovarian) [µM]	GI50 (HOP-62 NSCLC) [µM]	GI50 (MCF7 breast) [µM]	GI50 (NCI/ADR-RES ovarian) [µM]
CC(=O)[O-].O=[N+]([O-])c1ccc([O-])c(C=NCCN=Cc2cc([N+](=O)[O-])ccc2[O-])c1.[Mn+3]	> 100	> 100	> 100	> 100	> 100	> 100	> 100	> 100	> 100	> 100 µM	> 100	> 100	> 100	> 100	–	–	–	–	–	–
Cc1cc(C)c2nccc(NCCCN(C)C)c2c1[N+](=O)[O-]	–	> 100	–	> 100	–	30.7	–	78.1	–	33.7 µM	–	58.8	–	37	> 100	> 100	–	–	–	–
C=C1c2ccccc2N(S(=O)(=O)c2ccc(C)cc2)C12CCCCC2	–	> 100	–	> 100	–	> 100	–	> 100	–	> 100 µM	–	> 100	–	> 100	> 100	–	–	–	–	–
O=C1[C@H]2ON(c3ccccc3)C(c3cccc([N+](=O)[O-])c3)[C@H]2C(=O)N1c1ccc(Cc2ccc(N3C(=O)[C@@H]4ON(c5ccccc5)C(c5cccc([N+](=O)[O-])c5)[C@@H]4C3=O)cc2)cc1 (some centres not stated)	–	> 100	–	> 100	–	> 100	–	> 100	–	60.8 µM	–	> 100	–	> 100	> 100	–	–	–	–	–
O=c1ncccn1C1OC(CO)C(O)C1F (configuration not stated)	–	> 100	> 100	> 100	> 100	> 100	–	> 100	–	> 100 µM	–	> 100	–	> 100	> 100	–	–	–	–	–
CC12O[Te]34OC1(C)C(C)(O3)C2(C)O4	–	25.1	–	23.2	–	54	–	–	–	33.7 µM	–	29.8	–	23.3	36.8	–	–	–	–	–
O=C1OC(c2ccc(Cl)c3ccccc23)c2ccccc21 (configuration not stated)	–	> 100	–	> 100	–	> 100	–	> 100	–	> 100 µM	–	> 100	–	> 100	> 100	–	–	–	–	–
C=CCN(N=O)C(=O)ON1C(=O)CCC1=O	–	> 100	–	> 100	–	> 100	–	> 100	–	> 100 µM	–	> 100	–	> 100	> 100	–	–	–	–	–
O=C1Nc2ccc(Br)cc2C1=Nc1ccc(Cl)cc1	–	> 100	–	62.9	–	36.8	–	39	–	72.2 µM	–	–	–	82.5	52.1	27.1	62.3	–	–	–
CC1(C)Oc2ccccc2N2O[C@@H]3C(=O)N(c4ccccc4)C(=O)[C@@H]3C21c1ccccc1 (some centres not stated)	–	48.4	–	59.7	–	–	–	–	–	46.4 µM	–	53.3	–	85	31.5	–	–	–	–	–
CCC1(Cl)C(=O)NC(=O)N(C2CC(O)C(CO)O2)C1N=[N+]=[N-] (configuration not stated)	–	> 100	–	–	–	–	–	> 100	–	> 100 µM	–	> 100	–	> 100	> 100	–	–	–	–	–
CC[C@H](C)[C@H](NC(=O)N[C@@H](C)c1ccccc1)C(=O)N(C)[C@H](C[C@@H](OC(C)=O)c1nc(C(=O)N[C@@H](Cc2ccccc2)C[C@H](C)C(=O)OC)cs1)C(C)C	67.3	> 100	21.8	68.5	25.4	> 100	–	–	15.9	46.7 µM	18.3	> 100	47	> 100	> 100	> 100	> 100	33	7.28	45.8
Nc1nc(Cl)cc(NCCCCCCNc2cc(Cl)nc(N)n2)n1	–	> 100	–	> 100	–	> 100	–	> 100	–	> 100 µM	–	> 100	–	–	> 100	–	–	–	–	–
Cc1ccc(S(=O)c2ccc([N+](=O)[O-])c3nonc23)cc1 (configuration not stated)	18.7	39.5	1.82	3.39	–	–	3.09	8.93	11	23.7 µM	17.8	35.8	9.15	23.3	30.8	21.9	48.9	16.2	5.53	15.8
CCOc1ccccc1NC(=O)CCC(=O)NN	–	> 100	–	> 100	–	> 100	–	> 100	–	> 100 µM	–	> 100	–	> 100	> 100	–	–	–	–	–
O=c1/c(=C/c2ccc3c(c2)OCO3)sc2nnc(Cc3ccccc3)n12	–	> 100	–	> 100	–	> 100	–	> 100	–	> 100 µM	–	> 100	–	> 100	> 100	–	–	–	–	–
Cc1cc2c(-c3nc4ccccn4c3NC34CC5CC(CC(C5)C3)C4)c(O)c(O)cc2c(O)c1-c1c(C)cc2c(-c3nc4ccccn4c3NC34CC5CC(CC(C5)C3)C4)c(O)c(O)cc2c1O	0.255	> 25	0.0889	6.22	0.466	> 25	0.789	11.5	–	–	0.802	6.25	0.459	4.69	> 25	4.28	> 25	0.724	0.175	1.05
COc1cc(-c2nn3c(=O)n(-c4ccc(Cl)cc4)c(=O)nc3s2)cc(OC)c1OC	> 50	> 100	–	> 100	> 50	> 100	> 100	> 100	28	50 µM and > 100 µM	> 50	> 100	> 50	> 100	> 71.9	–	–	–	–	–
COc1ccc(-c2nc(/C=N/Nc3cc(C)nc4ccc(Br)cc34)c(C)o2)cc1	1.74	3.33	1.84	3.36	0.902	2.33	1.49	3.47	1.78	3.39 µM	1.99	3.9	1.79	3.23	3.25	–	4.48	1.67	–	2.03
BrC(Br)([P+](c1ccccc1)(c1ccccc1)c1ccccc1)[P+](c1ccccc1)(c1ccccc1)c1ccccc1	–	> 100	–	46	–	98.2	–	54.3	–	48.9 µM	–	38.9	–	50	> 100	–	–	–	–	–

Structure (SMILES)	GI50 (A549 NSCLC) [µM]	TGI (A549 NSCLC) [µM]	GI50 (HCT-116 colon) [µM]	TGI (HCT-116 colon) [µM]	GI50 (HCT-15 colon) [µM]	TGI (HCT-15 colon) [µM]	GI50 (HL-60(TB) leukemia) [µM]	TGI (HL-60(TB) leukemia) [µM]	GI50 (M14 melanoma) [µM]	TGI (M14 melanoma)	GI50 (SK-MEL-2 melanoma) [µM]	TGI (SK-MEL-2 melanoma) [µM]	GI50 (SK-MEL-28 melanoma) [µM]	TGI (SK-MEL-28 melanoma) [µM]	TGI (HOP-62 NSCLC) [µM]	TGI (MCF7 breast) [µM]	TGI (NCI/ADR-RES ovarian) [µM]	GI50 (HOP-62 NSCLC) [µM]	GI50 (MCF7 breast) [µM]	GI50 (NCI/ADR-RES ovarian) [µM]
CC(C)(C)c1cc(C(=O)O)c(C(c2ccccc2)c2ccccc2C(=O)O)c(C(=O)O)c1 (configuration not stated)	–	> 100	–	> 100	–	> 100	–	> 100	–	> 100 µM	–	> 100	–	> 100	> 100	–	–	–	–	–
O=C(O)C(Cc1c[nH]c2ccccc12)N1C(=O)c2ccccc2C1=O (configuration not stated)	–	> 100	–	> 100	–	> 100	–	–	–	> 100 µM	–	> 100	–	> 100	> 100	> 100	> 100	–	–	–
CNc1ccc(N=Nc2cccc3ncccc23)cc1	50.9	> 100	–	–	16.1	> 100	4.88	> 100	44.3	> 100 µM	> 100	> 100	> 100	> 100	> 100	> 100	> 100	49	0.0261	23.3
O=C(NOC(=O)c1ccc([N+](=O)[O-])cc1)c1ccc(Cl)cc1	–	> 100	–	> 100	–	> 100	–	34.3	–	> 100 µM	–	> 100	–	> 100	> 100	–	–	–	–	–
CN1C=C(C(N)=O)C2CC(O)[C@@](NC(=O)CS(N)(=O)=O)(C(=O)O)C2C1 (some centres not stated)	–	> 36.2	–	18.7	–	66.3	–	> 100	–	2.8 µM	–	8.22	–	7.32	4.27	–	–	–	–	–
COC(=O)Cc1cc(=O)oc2c1C(=O)CCC2	–	> 100	–	> 100	–	> 100	–	> 100	–	> 100 µM	–	> 100	–	> 100	> 100	–	–	–	–	–
COC(=O)C1=C(C(=O)OC)C(C(=O)OC)C(C(=O)OC)C(C(=O)OC)(C(=O)OC)C(C(=O)OC)=C1C(=O)OC (configuration not stated)	–	46.4	–	19.6	–	21.2	–	4.95	–	29.8 µM	–	35.1	–	29.3	58.1	33.6	–	–	–	–
O=c1c2ccccc2c(=O)c2c1sc1c(=O)c3ccc(O)cc3c(=O)c12	0.222	0.497	0.651	3.9	–	–	2.38	9.77	0.0976	0.219 µM	1.47	3.88	0.247	0.541	0.285	–	6.87	0.15	–	1.45
CN1C(=O)CC2(C)c3cc(C=O)ccc3N(C)C12 (configuration not stated)	–	> 100	–	> 100	–	> 100	–	–	–	> 100 µM	–	> 100	–	> 100	> 100	–	–	–	–	–
COC(=O)C1=C(C(=O)OC)N(C(C)C)[C@H]2C(C(=O)OC)=C(C(=O)OC)N(C(C)C)[C@@H]12	–	> 100	–	> 100	–	> 100	–	> 100	–	> 100 µM	–	> 100	–	> 100	> 100	–	–	–	–	–
O=C1Cc2ccccc2CCc2ccccc21	–	> 100	–	> 100	–	> 100	–	> 100	–	> 100 µM	–	> 100	–	> 100	> 100	–	–	–	–	–
CCCC/C=C1\CCC(CN2CCCC2)C1=O (configuration not stated)	–	40.3	–	27.3	–	11.2	–	31.4	–	23.4 µM	–	29.8	–	29.1	33.3	–	–	–	–	–
CCCCCCCCCCCCCCCCCCNC(=O)[C@H]1CSC(c2ccc(F)c(OC)c2)N1 (some centres not stated)	–	–	0.835	1.64	–	–	0.67	1.62	0.713	1.47 µM	0.887	1.67	0.647	1.33	1.6	0.541	2.41	0.843	0.141	1.07
N=C(N)SCC(=O)O	–	> 100	–	> 100	–	> 100	–	–	–	> 100 µM	–	> 100	–	> 100	> 100	> 100	> 100	–	–	–
C(/C=C/N1CCCC1)=C\c1nc(N2CCCC2)c2ccccc2n1	–	> 100	–	33.8	–	32.5	–	61.3	–	33.5 µM	–	39.1	–	38.7	35.2	–	–	–	–	–
CCOC(=O)c1cc(C(=O)O)c(=O)n2c1[nH]c1ccccc12	–	> 100	–	> 100	–	> 100	–	> 100	–	> 100 µM	–	> 100	–	> 100	> 100	–	–	–	–	–
C/C(N=NC(=S)N1CCCCCC1)=C1\C=CC=CN1O	–	> 92.3	–	> 100	–	> 100	–	1.74	–	38.8 µM	–	18.8	–	> 96.3	> 20.5	> 100	–	–	–	–
COc1cc2c3c(c1OC)/C(=N/OS(=O)(=O)c1ccc(C)cc1)CC3N(S(=O)(=O)c1ccc(C)cc1)CC2 (configuration not stated)	–	> 100	–	> 100	–	–	–	> 100	–	> 100 µM	–	–	–	> 100	> 100	–	–	–	–	–
c1cc2ccc1C1NCCCN1CCN1CCCNC1c1ccc(cc1)C1NCCCN1CCN1CCCNC21 (configuration not stated)	–	> 100	–	> 100	–	> 100	–	67.8	–	> 100 µM	–	> 100	–	> 100	> 100	–	–	–	–	–
CC(=O)Nc1ccc2c(c1)CN1C(=O)c3ccccc3C1=N2	> 100	> 100	> 100	> 100	> 100	> 100	> 100	> 100	> 100	> 100 µM	–	–	> 100	> 100	> 100	> 100	> 100	> 100	> 100	> 100
